In ChEMBL document CHEMBL1140265, “Inhibitors of HCV NS5B polymerase. Part 1: Evaluation of the southern region of (2Z)-2-(benzoylamino)-3-(5-phenyl-2-furyl)acrylic acid” (Bioorg Med Chem Lett, 2005):

Tests used:
[1] = molecular target: RNA-directed RNA polymerase (Hepacivirus hominis, UniProt O39930); test: Inhibitory concentration against Hepatitis C virus NS5B polymerase
Hepatitis C virus [2] = test: Cytotoxic concentration against Hepatitis C virus replication using sub-genomic replicon assay; type: functional, Hepacivirus hominis
[3] = Half-life in rat after 5 mpk dosage administration; type: ADME, organism-based; conditions: in vivo, 5 mg/kg
Hepatitis C virus [4] = test: Effective concentration against Hepatitis C virus replication using sub-genomic replicon assay; type: functional, Hepacivirus hominis; conditions: read-out: ED50 (the source's name)
[5] = Maximum concentration in plasma levels in rat after 5 mpk dosage administration; type: ADME, organism-based; set-up: dose 5 mpk; conditions: 5 mg/kg
[6] = Bioavailability in rat (dose 5 mg/kg); type: ADME, organism-based; conditions: in vivo
[7] = Clearance at low levels in rat after 5 mpk dosage administration; type: ADME, organism-based; conditions: in vivo, 5 mg/kg

Chain of RNA-directed RNA polymerase (O39930 whole entry): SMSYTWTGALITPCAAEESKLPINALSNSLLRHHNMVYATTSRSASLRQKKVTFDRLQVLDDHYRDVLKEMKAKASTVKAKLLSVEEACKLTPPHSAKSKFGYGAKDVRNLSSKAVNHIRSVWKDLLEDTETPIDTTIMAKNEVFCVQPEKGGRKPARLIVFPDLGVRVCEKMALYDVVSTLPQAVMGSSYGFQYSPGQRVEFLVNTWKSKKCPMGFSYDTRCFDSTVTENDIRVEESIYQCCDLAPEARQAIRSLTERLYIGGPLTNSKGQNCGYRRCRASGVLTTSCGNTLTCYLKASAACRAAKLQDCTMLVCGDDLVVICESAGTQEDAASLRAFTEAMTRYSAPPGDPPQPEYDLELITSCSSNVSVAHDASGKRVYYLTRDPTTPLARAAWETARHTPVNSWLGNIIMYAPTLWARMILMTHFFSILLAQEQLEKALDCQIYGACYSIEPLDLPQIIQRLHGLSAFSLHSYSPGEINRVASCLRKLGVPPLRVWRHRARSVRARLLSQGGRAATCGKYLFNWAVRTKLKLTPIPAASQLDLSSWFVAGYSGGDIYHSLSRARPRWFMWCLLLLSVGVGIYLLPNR

Compound | IC50 [1] [µM] | other results
Cc1ccccc1Oc1ccc(/C=C(\NC(=O)c2ccccc2)C(=O)O)cc1 | 0.58 | 
COc1ccccc1-c1ccc(/C=C(\NC(=O)c2ccccc2)C(=O)O)o1 | 20 | 
CSc1ccccc1Oc1ccc(/C=C(\NC(=O)c2ccccc2)C(=O)O)cc1 | 1.8 | 
O=C(O)/C(=C/c1ccc(Oc2ccccc2[N+](=O)[O-])cc1)NC(=O)c1ccccc1 | 73 | 
O=C(O)/C(=C/c1ccc(-c2ccccc2Cl)o1)NC(=O)c1ccccc1 | 1.3 | 
CC(C)(C)c1ccccc1Oc1ccc(/C=C(\NC(=O)c2ccccc2)C(=O)O)cc1 | > 100 | 
CCc1ccccc1Oc1ccc(/C=C(\NC(=O)c2ccccc2)C(=O)O)cc1 | 9.4 | 
O=C(O)/C(=C/c1ccc(-c2cccc(F)c2)o1)NC(=O)c1ccccc1 | 3.9 | 
O=C(O)/C(=C/c1ccc(Oc2c(F)cccc2Cl)cc1)NC(=O)c1ccccc1 | 0.07 | 
O=C(O)/C(=C/c1ccc(-c2ccccc2OC(F)(F)F)o1)NC(=O)c1ccccc1 | 4 | 
O=C(O)/C(=C/c1ccc(Oc2ccccc2)cc1)NC(=O)c1ccccc1 | 17 | 
CSc1ccc(-c2ccc(/C=C(\NC(=O)c3ccccc3)C(=O)O)o2)cc1 | 27 | 
O=C(O)/C(=C/c1ccc(-c2cccc(OC(F)(F)F)c2)o1)NC(=O)c1ccccc1 | 66 | 
O=C(O)/C(=C/c1ccc(-c2cccc(CO)c2)o1)NC(=O)c1ccccc1 | > 100 | 
O=C(O)/C(=C/c1ccc(-c2ccccc2C(F)(F)F)o1)NC(=O)c1ccccc1 | 5.6 | 
O=C(O)/C(=C/c1ccc(-c2ccc(CO)cc2)o1)NC(=O)c1ccccc1 | > 100 | 
O=C(O)/C(=C/c1ccc(-c2ccc(OC(F)(F)F)cc2)o1)NC(=O)c1ccccc1 | 22 | 
NS(=O)(=O)c1cccc(-c2ccc(/C=C(\NC(=O)c3ccccc3)C(=O)O)o2)c1 | > 100 | 
O=C(O)/C(=C/c1cncc(-c2ccccc2Cl)c1)NC(=O)c1ccccc1 | > 100 | 
O=C(O)/C(=C/c1ccc(Oc2ccccc2Br)cc1)NC(=O)c1ccccc1 | 0.1 | CC50 (Hepatitis C virus [2]): > 100 µM; half-life [3]: 1.5 h; EC50 (Hepatitis C virus [4]): 28 µM; Cmax [5]: 9 µM; bioavailability [6]: 21%; clearance [7]: 3.33 mL/min/kg
O=C(O)/C(=C/c1ccc(-c2ccc(C(F)(F)F)cc2)o1)NC(=O)c1ccccc1 | 13 | 
O=C(O)/C(=C/c1ccc(-c2ccc([N+](=O)[O-])cc2)o1)NC(=O)c1ccccc1 | > 100 | 
O=C(O)/C(=C/c1ccc(-c2ccccc2)o1)NC(=O)c1ccccc1 | 6.7 | CC50 (Hepatitis C virus [2]): > 100 µM; EC50 (Hepatitis C virus [4]): > 100 µM
O=C(O)/C(=C/c1ccc(-c2ccccc2F)o1)NC(=O)c1ccccc1 | 3.1 | 
O=C(O)/C(=C/c1cccc(-c2ccccc2Cl)c1)NC(=O)c1ccccc1 | 1.3 | 
O=C(O)/C(=C/c1ccc(Oc2ccccc2Cl)cc1)NC(=O)c1ccccc1 | 0.2 | CC50 (Hepatitis C virus [2]): > 100 µM; half-life [3]: 1.9 h; EC50 (Hepatitis C virus [4]): 60 µM; Cmax [5]: 22 µM; bioavailability [6]: 42%; clearance [7]: 5.17 mL/min/kg
O=C(O)/C(=C/c1ccc(Oc2c(F)cccc2Br)cc1)NC(=O)c1ccccc1 | 0.03 | CC50 (Hepatitis C virus [2]): > 100 µM; EC50 (Hepatitis C virus [4]): 50 µM

Compound | IC50 [1] [µM] | other results
O=C(O)/C(=C/c1ccc(-c2ccccc2F)s1)NC(=O)c1ccccc1 | 2.6 | 
O=C(O)/C(=C/c1ccc(-c2ccccc2Cl)s1)NC(=O)c1ccccc1 | 0.66 | 
O=C(O)/C(=C/c1ccc(-c2cccc([N+](=O)[O-])c2)o1)NC(=O)c1ccccc1 | 25 | 
Cc1ccccc1-c1ccc(/C=C(\NC(=O)c2ccccc2)C(=O)O)s1 | 1.4 | 
CC(C)Oc1ccccc1Oc1ccc(/C=C(\NC(=O)c2ccccc2)C(=O)O)cc1 | 44 | 
O=C(O)/C(=C/c1ccc(Oc2c(Cl)cccc2[N+](=O)[O-])cc1)NC(=O)c1ccccc1 | 5.5 | 
N#Cc1ccccc1Oc1ccc(/C=C(\NC(=O)c2ccccc2)C(=O)O)cc1 | 47 | 
O=C(O)/C(=C/c1ccc(Oc2ccccc2I)cc1)NC(=O)c1ccccc1 | 0.04 | CC50 (Hepatitis C virus [2]): > 100 µM; EC50 (Hepatitis C virus [4]): 29 µM
O=C(O)/C(=C/c1ccc(-c2ccccc2CO)s1)NC(=O)c1ccccc1 | 20 | 
O=C(O)/C(=C/c1ccc(Oc2ccccc2-c2ccccc2)cc1)NC(=O)c1ccccc1 | 48 | 
CC(C)c1ccccc1Oc1ccc(/C=C(\NC(=O)c2ccccc2)C(=O)O)cc1 | 28 | 
O=C(O)/C(=C/c1ccc(Oc2ccccc2C(F)(F)F)cc1)NC(=O)c1ccccc1 | 1.3 | 
O=C(O)/C(=C/c1ccc(-c2ccc(Cl)cc2)o1)NC(=O)c1ccccc1 | 4.6 | 
O=C(O)/C(=C/c1ccc(-c2cccc(C(F)(F)F)c2)o1)NC(=O)c1ccccc1 | 8.7 | 
O=C(O)/C(=C/c1ccc(-c2ccccc2)s1)NC(=O)c1ccccc1 | 1.5 | 
O=C(O)/C(=C/c1cccc(-c2ccccc2Cl)n1)NC(=O)c1ccccc1 | 11 | 
O=C(O)/C(=C/c1ccc(-c2cccc(Cl)c2)o1)NC(=O)c1ccccc1 | 6 | 
Cc1ccccc1-c1ccc(/C=C(\NC(=O)c2ccccc2)C(=O)O)o1 | 3 | 
O=C(O)/C(=C/c1ccc(-c2ccc(F)cc2)o1)NC(=O)c1ccccc1 | 12 | 
O=C(O)/C(=C/c1ccc(Oc2ccccc2F)cc1)NC(=O)c1ccccc1 | 6.9 | 
COc1ccccc1Oc1ccc(/C=C(\NC(=O)c2ccccc2)C(=O)O)cc1 | 15 | 
Nc1cccc(Cl)c1Oc1ccc(/C=C(\NC(=O)c2ccccc2)C(=O)O)cc1 | 0.31 | 
Cc1cccc(Cl)c1Oc1ccc(/C=C(\NC(=O)c2ccccc2)C(=O)O)cc1 | 0.2 | 
NS(=O)(=O)c1ccc(-c2ccc(/C=C(\NC(=O)c3ccccc3)C(=O)O)o2)cc1 | > 100 | 
O=C(O)/C(=C/c1ccc(-c2ccccc2[N+](=O)[O-])o1)NC(=O)c1ccccc1 | 6.9 | 
O=C(O)/C(=C/c1ncc(-c2ccccc2Cl)s1)NC(=O)c1ccccc1 | 5.2 | 
